Test results as given in patent publication US7557244B2, “Substituted biphenyl carboxylic acids and derivatives thereof” (Ortho-McNeil Pharmaceutical, Inc., priority 2006, dated 2009).

How the values were obtained:
Aβ 42 [1] = test: In vivo Aβ 42 lowering, mouse; conditions: oral dose 30 mg/kg at 4 hr time point
Source text: (§1) To determine whether acute administration of an Aβ42 lowering agent would reduce Aβ42 levels in vivo, non-transgenic rodents, e.g. mice or rats can be used. Alternatively, two to three month old Tg2576 mice expressing APP695 containing the “Swedish” variant can be used or a transgenic mouse model developed by Dr. Fred Van Leuven (K. U. Leuven, Belgium) and co-workers, with neuron-specific expression of a clinical mutant of the human amyloid precursor protein [V717I] (Moechars et al., 1999 J. Biol. Chem. 274, 6483). […] Animals of this age have high levels of Aβ in the brain but no detectable Aβ deposition. Mice treated with the Aβ42 lowering agent will be examined and compared to those untreated or treated with vehicle and brain levels of soluble Aβ42 and total Aβ would be quantitated by standard techniques, for example, using ELISA. Treatment periods may vary from hours to days and will be adjusted based on the results of the Aβ42 lowering once a time course of onset of effect can be established.
A typical protocol for measuring Aβ42 lowering in vivo is shown but it is only one of many variations that could be used to optimize the levels of detectable Aβ. For example, aliquots of compounds can be dissolved in DMSO (volume equal to 1/10th of the final formulation volume), vortexed and further diluted (1:10) with a 10% (w/v) hydroxypropyl β cyclodextrin (HBC, Aldrich, Ref No 33,260-7) solution in PBS, where after they are sonicated for 20 seconds.
Aβ42 lowering agents may be administered as a single oral dose given three to four hours before sacrifice and analysis or alternatively could be given over a course of days and the animals sacrificed three to four hours after the final dose is given.
Blood is collected at sacrifice. The blood collection is performed via a heart puncture during anesthesia with a mixture of Ketalar (Ketamin), Rompun (Xylazin 2%) and Atropin (2:1:1) and collected in EDTA treated collection tubes. Blood is centrifuged at 4000 g for 5 minutes at 4° C. and the plasma recovered for analysis. […]

γ-secretase = test: Screening for γ-secretase-modulating activity, Aβ 42 in SKNBE2 cells carrying APP 695-wild type; format: cell-based; conditions: for EC50: read-out: WTAPP SKNBE2 Aβ 42 EC50
Description: Screening of the Compounds of the Invention for γ-Secretase-Modulating Activity
Screening was carried out using SKNBE2 cells carrying the APP 695-wild type, grown in DMEM/NUT-mix F12 (HAM) provided by Gibco (cat no. 31330-38) containing 5% Serum/Fe supplemented with 1% non-essential amino acids.
Cells were grown to near confluency.
The screening was performed using the assay as described in Citron et al (1997) Nature Medicine 3: 67.
IC50-Values of Selected Compounds of the Invention on the γ-Secretase Activity.

Aβ 42 [2] = test: In vivo Aβ 42 lowering, rat; conditions: oral dose 30 mg/kg at 4 hr time point
Source text: as §1
A typical protocol for measuring Aβ42 lowering in vivo is shown but it is only one of many variations that could be used to optimize the levels of detectable Aβ. […]

**Q.** `CC(C)C[C@@H](C(=O)O)c1cc(Nc2cc(C(F)(F)F)ccc2C(F)(F)F)cc(-c2ccc(C(F)(F)F)cc2)c1` [Compound 46, (R)2-[5-(2,5-Bis-trifluoromethyl-phenylamino)-4′-trifluoromethyl-biphenyl-3-yl]-4-methyl-pentanoic acid] was tested. Which “Mouse Efficacy % Lowering Aβ 42” value (Aβ 42 [1]) did it give?
**A.** Its value is 18%.

**Q.** What about the EC50 (γ-secretase) of the same compound?
**A.** Its EC50 is 100 nM.

**Q.** What about the “Rat Efficacy % Lowering Aβ 42” value (Aβ 42 [2]) of the same compound?
**A.** Its value is 30%.

**Q.** Which “Mouse Efficacy % Lowering Aβ 42” value (Aβ 42 [1]) does the source give for `CC(C)CC(C(=O)O)c1cc(Oc2cc(F)cc(C(F)(F)F)c2)cc(-c2ccc(C(F)(F)F)cc2)c1` (stereo not drawn) [Compound 30, 2-[5-(3-Fluoro-5-trifluoromethyl-phenoxy)-4′-trifluoromethyl-biphenyl-3-yl]-4-methyl-pentanoic acid] here?
**A.** The value was 43%.

**Q.** And the EC50 (γ-secretase)?
**A.** Its EC50 is 330 nM.

**Q.** `CC(C)CC(C(=O)O)c1cc(Oc2ccc(Cl)cc2)cc(-c2ccc(C(F)(F)F)cc2)c1` (stereo not drawn) [Compound 29, 2-[5-(4-Chloro-phenoxy)-4′-trifluoromethyl-biphenyl-3-yl]-4-methyl-pentanoic acid] was tested. Which “WTAPP SKNBE2 Aβ 42 % Inhibition at 3 μM” value (γ-secretase) did it give?
**A.** Its value is 62%.

**Q.** How did the EC50 (γ-secretase) turn out when `CC(C)CC(C(=O)O)c1cc(Nc2ccc(C(C)C)cc2)cc(-c2ccc(C(F)(F)F)cc2)c1` (stereo not drawn) [Compound 4, 2-[5-(4-Isopropyl-phenylamino)-4′-trifluoromethyl-biphenyl-3-yl]-4-methyl-pentanoic acid] was run?
**A.** Its EC50 is 290 nM.

**Q.** `CC(C)CC(C(=O)O)c1cc(Oc2cc(F)cc(C(F)(F)F)c2)cc(-c2cc(C(F)(F)F)cc(C(F)(F)F)c2)c1` (stereo not drawn) [Compound 34, 2-[5-(3-Fluoro-5-trifluoromethyl-phenoxy)-3′,5′-bis-trifluoromethyl-biphenyl-3-yl]-4-methyl-pentanoic acid] was tested. Which EC50 (γ-secretase) did it give?
**A.** The EC50 was 260 nM.

**Q.** Which EC50 (γ-secretase) does the source give for `CC(C)CC(C(=O)O)c1cc(Oc2cc(F)cc(F)c2)cc(-c2ccc(C(F)(F)F)cc2)c1` (stereo not drawn) [Compound 27, 2-[5-(3,5-Difluoro-phenoxy)-4′-trifluoromethyl-biphenyl-3-yl]-4-methyl-pentanoicacid] here?
**A.** Its EC50 is 770 nM.

**Q.** How did the “WTAPP SKNBE2 Aβ 42 % Inhibition at 3 μM” value (γ-secretase) turn out when `CC(C)CC(C(=O)O)c1cc(Nc2ccc(F)cc2)cc(-c2ccc(C(F)(F)F)cc2)c1` (stereo not drawn) [Compound 6, 2-[5-(4-Fluoro-phenylamino)-4′-trifluoromethyl-biphenyl-3-yl]-4-methyl-pentanoic acid] was run?
**A.** Its value is 66%.

**Q.** With `CC(C)CC(C(=O)O)c1cc(Nc2ccc(F)cc2C(F)(F)F)cc(-c2ccc(C(F)(F)F)cc2)c1` (stereo not drawn) [Compound 9, 2-[5-(4-Fluoro-2-trifluoromethyl-phenylamino)-4′-trifluoromethyl-biphenyl-3-yl]-4-methyl-pentanoic acid] as the compound, how does the EC50 (γ-secretase) read?
**A.** Its EC50 is 280 nM.

**Q.** `CC(C)CC(C(=O)O)c1cc(Oc2cccc(C(F)(F)F)c2)cc(-c2cc(C(F)(F)F)cc(C(F)(F)F)c2)c1` (stereo not drawn) [Compound 35, 2-[3′,5′-Bis-trifluoromethyl-5-(3-trifluoromethyl-phenoxy)-biphenyl-3-yl]-4-methyl-pentanoic acid] was tested. Which “WTAPP SKNBE2 Aβ 42 % Inhibition at 3 μM” value (γ-secretase) did it give?
**A.** The value was 90%.

**Q.** How did the “Mouse Efficacy % Lowering Aβ 42” value (Aβ 42 [1]) turn out when `CC(C)CC(C(=O)O)c1cc(Oc2cc(F)cc(C(F)(F)F)c2)cc(-c2ccc(Cl)c(C(F)(F)F)c2)c1` (stereo not drawn) [Compound 21, 4-Methyl-2-[4′-chloro-3′-trifluoromethyl-5-(3-fluoro-5-trifluoromethylphenoxy)-biphenyl-3-yl]-pentanoic acid] was run?
**A.** The value was 25%.

**Q.** And the EC50 (γ-secretase)?
**A.** The EC50 was 140 nM.

**Q.** For `CC(C)CC(C(=O)O)c1cc(Nc2ccc(C#N)cc2)cc(-c2ccc(C(F)(F)F)cc2)c1` (stereo not drawn) [Compound 13, 2-[5-(4-Cyano-phenylamino)-4′-trifluoromethyl-biphenyl-3-yl]-4-methyl-pentanoic acid], which “WTAPP SKNBE2 Aβ 42 % Inhibition at 3 μM” value (γ-secretase) is on record?
**A.** Its value is 52%.

**Q.** Which “WTAPP SKNBE2 Aβ 42 % Inhibition at 3 μM” value (γ-secretase) does the source give for `CC(C)CC(C(=O)O)c1cc(Oc2cccc(F)c2)cc(-c2ccc(C(F)(F)F)cc2)c1` (stereo not drawn) [Compound 26, 2-[5-(3-Fluoro-phenoxy)-4′-trifluoromethyl-biphenyl-3-yl]-4-methyl-pentanoic acid] here?
**A.** The value was 58%.

**Q.** For `COc1ccc(Oc2cc(-c3ccc(C(F)(F)F)cc3)cc(C(CC(C)C)C(=O)O)c2)cc1C(F)(F)F` (stereo not drawn) [Compound 19, 2-[5-(4-Methoxy-3-trifluoromethyl-phenoxy)-4′-trifluoromethyl-biphenyl-3-yl]-4-methyl-pentanoic acid], which “WTAPP SKNBE2 Aβ 42 % Inhibition at 3 μM” value (γ-secretase) is on record?
**A.** Its value is 22%.

**Q.** How did the “WTAPP SKNBE2 Aβ 42 % Inhibition at 3 μM” value (γ-secretase) turn out when `CC(C)CC(C(=O)O)c1cc(Nc2ccc(Cl)c(C(F)(F)F)c2)cc(-c2ccc(C(F)(F)F)cc2)c1` (stereo not drawn) [Compound 12, 2-[5-(4-Chloro-3-trifluoromethyl-phenylamino)-4′-trifluoromethyl-biphenyl-3-yl]-4-methyl-pentanoic acid] was run?
**A.** The value was 81%.
